23 molecules from patent publication US9133157B2, “HIV protease inhibitors” (Merck Canada Inc., priority 2011, dated 2015) can be followed below.

SMILES strings stand for the structures.

As a reminder, the IC50 is the concentration that gives 50% inhibition.

The assay deals with WT HIV-1 protease (Human immunodeficiency virus type 1 group M subtype B (isolate HXB2) (HIV-1), UniProt P04585). Put plainly: Assay for inhibition of microbial expressed HIV protease (Procedure A, peptide substrate, HPLC fluorescence detection). The class given is biochemical. Particulars: WT HIV-1 protease 10 pM, substrate 400 micromolar, pH 5.5, 30 min preincubation, 1 hour at 30° C.; read-out: Enzyme inhibition IC50. The gist of the method: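 E. coli-expressed enzyme preincubated 30 min at room temperature with compound in 50 mM sodium acetate pH 5.5, 100 mM NaCl, 0.1% BSA. Reaction ran 1 h at 30° C with 400 micromolar Val-Ser-Gln-Asn-(betanaphthyl)Ala-Pro-Ile-Val substrate and 10 picomolar protease. After phosphoric acid quench, product was measured by C18 HPLC with fluorescence (ex 270/em 330 nm).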
With `COC(=O)N[C@H](C(=O)N[C@H](c1ccc([C@@H](CO)N(C(C)C)S(=O)(=O)c2ccc3[nH]ccc3c2)s1)C(F)(F)F)C(c1ccccc1)c1ccccc1` [Example 78, Nα-(methoxycarbonyl)-β-phenyl-N-[(1S)-2,2,2-trifluoro-1-(5-{(1R)-2-hydroxy-1-[(1H-indol-5-ylsulfonyl)(propan-2-yl)amino]ethyl}thiophen-2-yl)ethyl]-L-phenylalaninamide], the IC50 amounted to 66.1 nM. Take `COC(=O)N[C@H](C(=O)N[C@H](c1ccc([C@@H](CO)N(C(C)C)S(=O)(=O)c2ccc3cn[nH]c3c2)s1)C(F)(F)F)C(c1ccccc1)c1ccccc1` [Example 81, Nα-(methoxycarbonyl)-β-phenyl-N-[(1S)-2,2,2-trifluoro-1-(5-{(1R)-2-hydroxy-1-[(1H-indazol-6-ylsulfonyl)(propan-2-yl)amino]ethyl}thiophen-2-yl)ethyl]-L-phenylalaninamide]: the IC50 was 74.1 nM. For the molecule `COC(=O)N[C@H](C(=O)NCc1ccc([C@@H](CO)N(Cc2cc3cccnc3[nH]2)S(=O)(=O)c2ccc(N)cc2)s1)C(c1ccccc1)c1ccccc1` [Example 13], the IC50 stood at 3.9 nM.

As to `COC(=O)N[C@H](C(=O)N[C@H](c1ccc([C@@H](CO)N(CCC(C)(C)C)S(=O)(=O)c2ccc(N)cn2)s1)C(F)(F)F)C(c1ccccc1)c1ccccc1` [Example 57, N-[(1S)-1-{5-[(1R)-1-{[(5-aminopyridin-2-yl)sulfonyl](3,3-dimethylbutyl)amino}-2-hydroxyethyl]thiophen-2-yl}-2,2,2-trifluoroethyl]-Nα-(methoxycarbonyl)-β-phenyl-L-phenylalaninamide], the IC50 was found to be 1.32 nM. On to `CC(C)CN(C(CO)c1ccc(CNC(=O)C(NC(=O)c2ccccc2)C(c2ccccc2)c2c[nH]c3ncccc23)s1)S(=O)(=O)c1ccc2ncsc2c1` (centres unmarked) [Example 126, N-[1[[5-[1-(1,3-benzothiazol-6-ylsulfonyl(isobutyl)amino)-2-hydroxy-ethyl]-2-thienyl]methylcarbamoyl]-2-phenyl-2-(1H-pyrrolo[2,3-b]pyridin-3-yl)ethyl]benzamide], for which the IC50 came out at 4 nM. In the case of `COC(=O)N[C@H](C(=O)N[C@H](c1ccc([C@@H](CO)N(CCC(C)(C)C)S(=O)(=O)c2ccc3ocnc3c2)s1)C(F)(F)F)C(c1ccccc1)c1ccccc1` [Example 96, N-[(1S)-1-(5-{(1R)-1-[(1,3-benzoxazol-5-ylsulfonyl)(3,3-dimethylbutyl)amino]-2-hydroxyethyl}thiophen-2-yl)-2,2,2-trifluoroethyl]-Nα-(methoxycarbonyl)-β-phenyl-L-phenylalaninamide], the IC50 was found to be 1.95 nM. `COC(=O)N[C@H](C(=O)N[C@H](c1ccc([C@@H](CO)N(CCC(C)(C)C)S(=O)(=O)c2ccc3scnc3c2)s1)C(F)(F)F)C(c1ccccc1)c1ccccc1` [Example 91, N-[(1S)-1-(5-{(1R)-1-[(1,3-benzothiazol-5-ylsulfonyl)(3,3-dimethylbutyl)amino]-2-hydroxyethyl}thiophen-2-yl)-2,2,2-trifluoroethyl]-Nα-(methoxycarbonyl)-β-phenyl-L-phenylalaninamide]: the IC50 worked out at 2.9 nM. The figure for `CC(C)CN(C(CO)c1ccc(CNC(=O)C(NC(=O)c2ccccc2)C(c2ccccc2)c2cccc3ccncc23)s1)S(=O)(=O)c1ccc2ncsc2c1` (centres unmarked) [Example 129, N-[1-[[5-[1-(1,3-benzothiazol-6-ylsulfonyl(isobutyl)amino)-2-hydroxy-ethyl]-2-thienyl]methylcarbamoyl]-2-(8-isoquinolyl)-2-phenyl-ethyl]benzamide] is 7 nM; for `COC(=O)N[C@H](C(=O)N[C@H](c1ccc([C@@H](CO)N(CCC(C)(C)C)S(=O)(=O)c2ccn3ncnc3c2)s1)C(F)(F)F)C(c1ccccc1)c1ccccc1` [Example 120, N-[(1S)-1-(5-{(1R)-1-[(3,3-dimethylbutyl)([1,2,4]triazolo[1,5-a]pyridin-7-ylsulfonyl)amino]-2-hydroxyethyl}thiophen-2-yl)-2,2,2-trifluoroethyl]-Nalpha-(methoxycarbonyl)-beta-phenyl-L-phenylalaninamide] it is 3 nM; for `COC(=O)N[C@H](C(=O)NCc1ccc([C@@H](CO)N(Cc2nonc2C)S(=O)(=O)c2ccc(N)cc2)s1)C(c1ccccc1)c1ccccc1` [Example 18] it is 6.95 nM. On to `COC(=O)N[C@H](C(=O)N[C@@H](C)c1ccc([C@@H](CO)N(CC(C)C)S(=O)(=O)c2ccc(N)cc2)s1)C(c1ccccc1)c1ccccc1` [Example 76, N-[(1S)-1-{5-[(1R)-1-{[(4-aminophenyl)sulfonyl](2-methylpropyl)amino}-2-hydroxyethyl]thiophen-2-yl}ethyl]-Nα-(methoxycarbonyl)-β-phenyl-L-phenylalaninamide], for which the IC50 was 11.8 nM. The figure for `CC(C)CN(C(CO)c1ccc(CNC(=O)C(NC(=O)c2ccccc2)C(c2ccccc2)c2cccc3ncccc23)s1)S(=O)(=O)c1ccc2ncsc2c1` (centres unmarked) [Example 133, N-[1-[[5-[1-(1,3-benzothiazol-6-ylsulfonyl(isobutyl)amino)-2-hydroxy-ethyl]-2-thienyl]methylcarbamoyl]-2-phenyl-2-(5-quinolyl)ethyl]benzamide] is 4.76 nM; for `COC(=O)N[C@H](C(=O)N[C@H](c1ccc([C@@H](CO)N(CCC(C)(C)C)S(=O)(=O)c2ccc3cc[nH]c3c2)s1)C(F)(F)F)C(c1ccccc1)c1ccccc1` [Example 94, N-[(1S)-1-(5-{(1R)-1-[(3,3-dimethylbutyl)(1H-indol-6-ylsulfonyl)amino]-2-hydroxyethyl}thiophen-2-yl)-2,2,2-trifluoroethyl]-Nα-(methoxycarbonyl)-β-phenyl-L-phenylalaninamide] it is 0.09 nM. On to `COC(=O)N[C@H](C(=O)N[C@H](c1ccc([C@@H](CO)N(CC2CC(F)(F)C2)S(=O)(=O)c2ccc(N)cc2)s1)C(F)(F)F)C(c1ccccc1)c1ccccc1` [Example 84, N-[(1S)-1-{5-[(1R)-1-{[(4-aminophenyl)sulfonyl][(3,3-difluorocyclobutyl)methyl]amino}-2-hydroxyethyl]thiophen-2-yl}-2,2,2-trifluoroethyl]-Nα-(methoxycarbonyl)-β-phenyl-L-phenylalaninamide], for which the IC50 was determined as 0.75 nM. `[2H]C([2H])([2H])C([2H])(N([C@H](CO)c1ccc([C@@H](NC(=O)[C@@H](NC(=O)OC)C(c2ccccc2)c2ccccc2)C(F)(F)F)s1)S(=O)(=O)c1ccc2[nH]ncc2c1)C([2H])([2H])[2H]` [Example 107, Nα-(methoxycarbonyl)-β-phenyl-N-[(1S)-2,2,2-trifluoro-1-{5-[(1R)-2-hydroxy-1-1(1H-indazol-5-ylsulfonyl)[(2-^2H)propan-2-yl]amino}ethyl]thiophen-2-yl}ethyl-L-phenylalaninamide]: the IC50 was 23.4 nM.

On to `CC(C)CN(C(CO)c1ccc(CNC(=O)C(NC(=O)c2ccccc2)C(c2ccccc2)c2cn[nH]c2)s1)S(=O)(=O)c1ccc2ncsc2c1` (centres unmarked) [Example 131, N-[1-[[5-[1-(1,3-benzothiazol-6-ylsulfonyl(isobutyl)amino)-2-hydroxy-ethyl]-2-thienyl]methylcarbamoyl]-2-phenyl-2-(1H-pyrazol-4-yl)ethyl]benzamide], for which the IC50 came to 79 nM. Turning to `CC(C)CN(C(CO)c1ccc(CNC(=O)C(NC(=O)c2ccccc2)C(c2ccccc2)c2c[nH]nc2-c2ccccc2)s1)S(=O)(=O)c1ccc2ncsc2c1` (centres unmarked) [Example 130, N-[1-[[5-[1-(1,3-benzothiazol-6-ylsulfonyl(isobutyl)amino)-2-hydroxy-ethyl]-2-thienyl]methylcarbamoyl]-2-phenyl-2-(3-phenyl-1H-pyrazol-4-yl)ethyl]benzamide], the IC50 came to 952 nM. For the molecule `COC(=O)N[C@H](C(=O)N[C@H](c1ccc([C@@H](CO)N(CCc2ccccc2)S(=O)(=O)c2ccc(N)cc2)s1)C(F)(F)F)C(c1ccccc1)c1ccccc1` [Example 89, N-[(1S)-1-{5-[(1R)-1-{[(4-aminophenyl)sulfonyl](2-phenylethyl)amino}-2-hydroxyethyl]thiophen-2-yl}-2,2,2-trifluoroethyl]-Nα-(methoxycarbonyl)-β-phenyl-L-phenylalaninamide], the IC50 was determined as 2.6 nM. With `COC(=O)N[C@H](C(=O)NCc1ccc([C@@H](CO)N(Cc2cnon2)S(=O)(=O)c2ccc(N)cc2)s1)C(c1ccccc1)c1ccccc1` [Example 19], the IC50 was 33.8 nM. The figure for `CC(C)CN(C(CO)c1ccc(CNC(=O)C(NC(=O)c2ccccc2)C(c2ccccc2)c2cnc[nH]2)s1)S(=O)(=O)c1ccc2ncsc2c1` (centres unmarked) [Example 132, N-[1-[[5-[1-(1,3-benzothiazol-6-ylsulfonyl(isobutyl)amino)-2-hydroxy-ethyl]-2-thienyl]methylcarbamoyl]-2-(1H-imidazol-5-yl)-2-phenyl-ethyl]benzamide] is 216 nM; for `CC(C)CN(C(CO)c1ccc(CNC(=O)C(NC(=O)c2ccccc2)C(c2ccccc2)c2ccncc2F)s1)S(=O)(=O)c1ccc2ncsc2c1` (centres unmarked) [Example 124, N-[1-[[5-[1-(1,3-benzothiazol-6-ylsulfonyl(isobutyl)amino)-2-hydroxy-ethyl]-2-thienyl]methylcarbamoyl]-2-(3-fluoro-4-pyridyl)-2-phenyl-ethyl]benzamide] it is 568 nM; for `COC(=O)N[C@H](C(=O)NCc1ccc([C@@H](CO)N(CC2CC(F)(F)C2)S(=O)(=O)c2ccc3c(c2)COCC3)s1)C(c1ccccc1)c1ccccc1` [Example 17] it is 2.4 nM. Regarding `COC(=O)N[C@H](C(=O)N[C@H](c1ccc([C@@H](CO)N(C(C)C)S(=O)(=O)c2ccc(N)c(F)c2)s1)C(F)(F)F)C(c1ccccc1)c1ccccc1` [Example 80, N-[(1S)-1-{5-[(1R)-1-{[(4-amino-3-fluorophenyl)sulfonyl](propan-2-yl)amino}-2-hydroxyethyl]thiophen-2-yl}-2,2,2-trifluoroethyl]-Nα-(methoxycarbonyl)-β-phenyl-L-phenylalaninamide], the IC50 amounted to 30.5 nM.
